Data reported in US20230011869A1 (Hoffmann-La Roche Inc., priority 2018, published 2023).
Counter-ions that a name gives are not always drawn. Like-named read-outs stand apart in the source and are kept apart here.

Test system: Acinetobacter baumannii ATCC17978
Experiment: Antimicrobial susceptibility testing: 90% growth inhibitory concentration (IC90) determination, Iso-Sensitest broth
Format: cell-based
In short: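 A. baumannii ATCC17978 grown in Iso-Sensitest broth across 10 compound concentrations at 35±2 °C.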

[1] = 90% growth inhibitory concentration, Acinetobacter baumannii ATCC17978, Iso-Sensitest broth, OD 600 nm over 16 h, read-out: ATCC17978 IC90
[2] = Acinetobacter baumannii, ATCC17978, 16 h, read-out: ATCC17978 IC90, 90% growth inhibitory concentration, Acinetobacter baumannii ATCC17978, Iso-Sensitest broth, OD 600 nm over 16 h

Row | IC90 [1] [nM] | Compound | IC90 [2] [nM] | other results
1 | 92 | Cc1cc(Nc2nccn3c(-c4ccc(OCC#CCO)c(F)c4)cnc23)ccc1C(=O)N1CCC(CCN)CC1 [Example 246, [4-(2-aminoethyl)-1-piperidyl]-[4-[[3-[3-fluoro-4-(4-hydroxybut-2-ynoxy)phenyl]imidazo[1,2-a]pyrazin-8-yl]amino]-2-methyl-phenyl]methanone] | – | –
2 | – | Cc1cc(Nc2nccn3c(-c4ccc(OCC#CCN)c(F)c4)cnc23)ccc1C(=O)N1CCC(CN)CC1 [Example 247, [4-[[3-[4-(4-aminobut-2-ynoxy)-3-fluoro-phenyl]imidazo[1,2-a]pyrazin-8-yl]amino]-2-methyl-phenyl]-[4-(aminomethyl)-1-piperidyl]methanone; formic acid] | 870 | –
3 | – | Cc1cc(Nc2nccn3c(-c4ccc(OC(F)F)cc4)cnc23)ccc1C(=O)N1CCN(C(=O)[C@H]2C[C@@H](N)C2)CC1 [Example 249, [4-(3-aminocyclobutanecarbonyl)piperazin-1-yl]-[4-[[3-[4-(difluoromethoxy)phenyl]imidazo[1,2-a]pyrazin-8-yl]amino]-2-methyl-phenyl]methanone hydrochloride] | 180 | –
4 | – | Cc1cc(Nc2nccn3c(-c4ccc(OC(F)F)cc4)cnc23)ccc1C(=O)N1CCN(C(=O)[C@H]2C[C@H](N)C2)CC1 [Example 250, [4-(3-aminocyclobutanecarbonyl)piperazin-1-yl]-[4-[[3-[4-(difluoromethoxy)phenyl]imidazo[1,2-a]pyrazin-8-yl]amino]-2-methyl-phenyl]methanone hydrochloride] | 160 | –
5 | 2000 | COc1ccc(-c2cnc3c(Nc4ccc(C(=O)N5CCCC(CN(C)C)C5)c(C)c4)nccn23)cc1F (centres unmarked) [Example 252, [3-[(dimethylamino)methyl]pi-peridin-1-yl]-[4-[[3-(3-fluoro-4-methoxyphenyl)imidazo[1,2-a]pyrazin-8-yl]amino]-2-methylphenyl]methanone] | – | –
6 | 6700 | COc1ccc(-c2cnc3c(Nc4ccc(C(=O)N5CCCCC5CN(C)C)c(C)c4)nccn23)cc1F (centres unmarked) [Example 253, [2-[(dimethylamino)methyl]pi-peridin-1-yl]-[4-[[3-(3-fluoro-4-methoxyphenyl)imidazo[1,2-a]pyrazin-8-yl]amino]-2-methylphenyl]methanone; for-mic acid] | – | –
7 | 2100 | COc1ccc(-c2cnc3c(Nc4ccc(C(=O)N5CCNC(CN(C)C)C5)c(C)c4)nccn23)cc1F (centres unmarked) [Example 254, [3-[(dimethylamino)methyl]pi-perazin-1-yl]-[4-[[3-(3-fluoro-4-methoxyphenyl)imidazo[1,2-a]pyrazin-8-yl]amino]-2-methylphenyl]methanone; hy-drochloride] | – | –
8 | 730 | Cc1cc(Nc2nccn3c(-c4ccc(OC(F)F)cc4)cnc23)ccc1C(=O)N1CCN(C(=O)C(O)CN)CC1 (centres unmarked) [Example 255, 3-amino-1-[4-[4-[[3-[4-(difluoromethoxy)phenyl]imi-dazo[1,2-a]pyrazin-8-yl]amino]-2-methylbenzoyl]piperazin-1-yl]-2-hydroxypropan-2-one; 2,2,2-trifluoroacetc acid] | – | –
9 | 760 | COc1ccc(-c2cnc3c(Nc4ccc(C(=O)N5CCN(Cc6cnc[nH]6)CC5)c(C)c4)nccn23)cc1F [Example 256, [4-[[3-(3-fluoro-4-methoxyphenyl)imidazo[1,2-a]pyrazin-8-yl]amino]-2-methylphenyl]-[4-(1H-imidazol-5-ylmethyl)piperazin-1-yl]methanone] | – | –
10 | 850 | COc1ccc(-c2cnc3c(Nc4ccc(C(=O)N5CCC(C(=O)NCC(O)C(O)CO)CC5)c(C)c4)nccn23)cc1F (centres unmarked) [Example 257, 1-[4-[[3-(3-fluoro-4-methoxyphenyl)imidazo[1,2-a]pyrazin-8-yl]amino]-2-methylbenzoyl]-N-(2,3,4-trihydroxybutyl)piperidine-4-carboxamide] | – | –
11 | – | Cc1cc(Nc2nccn3c(-c4ccc(OC(F)F)cc4)cnc23)ccc1C(=O)N1CCN(C(=O)[C@H](N)C(C)C)CC1 [Example 258, hydrochloride] | 890 | –
12 | – | Cc1cc(Nc2nccn3c(-c4ccc(OC(F)F)cc4)cnc23)ccc1C(=O)N1CCN(C(=O)CN)CC1 [Example 259, 2-amino-1-[4-[4-[[3-[4-(difluoromethoxy)phenyl]imi-dazo[1,2-a]pryazin-8-yl]amino]-2-methylbenzoyl]piperazin-1-yl]ethanone; formic acid] | – | IC90 (read-out: ATCC17978 IC90, 90% growth inhibitory concentration, Acinetobacter baumannii ATCC17978, Iso-Sensitest broth, OD 600 nm over 16 h): 890 nM
13 | – | Cc1cc(Nc2nccn3c(-c4ccc(OC(F)F)cc4)cnc23)ccc1C(=O)N1CCN(C(=O)[C@H](N)C2CC2)CC1 [Example 260, (2R)-2-amino-2-cyclopropyl-1-[4-[4-[[3-[4-(difluoromethoxy)phenyl]imi-dazo[1,2-a]pyrazin-8-yl]amino]-2-methylbenzoyl]piperazin-1-yl]ethanone; hydrochloride] | 1000 | –
14 | – | CC[C@@H](N)C(=O)N1CCN(C(=O)c2ccc(Nc3nccn4c(-c5ccc(OC(F)F)cc5)cnc34)cc2C)CC1 [Example 261, (2R)-2-amino-1-[4-[4-[[3-[4-(difluoromethoxy)phenyl]imi-dazo[1,2-a]pyrazin-8-yl]amino]-2-methylbenzoyl]piperazin-1-yl]butan-1-one; hydrochloride] | 1000 | –
15 | – | Cc1cc(Nc2nccn3c(-c4ccc(OC(F)F)cc4)cnc23)ccc1C(=O)N1CCN(C(=O)[C@@H](N)CCCNC(N)=O)CC1 [Example 262, [(4S)-4-amino-5-[4-[4-[[3-[4-(difluoromethoxy)phenyl]imi-dazo[1,2-a]pyrazin-8-yl]amino]-2-methylbenzoyl]piperazin-1-yl]-5-oxopentyl]urea] | 1000 | –
16 | – | Cc1cc(Nc2nccn3c(-c4ccc(OC(F)F)cc4)cnc23)ccc1C(=O)N1CCC(C(=O)N[C@@H]2CCNC2)CC1 [Example 263, 1-[4-[[3-[4-(difluoromethoxy)phenyl]imi-dazo[1,2-a]pyrazin-8-yl]amino]-2-methylbenzoyl]-N-[(3R)-pyrrolidin-3-yl]piperidine-4-carboxamide; hydrochloride] | 1100 | –
17 | – | COc1ccc(-c2cnc3c(Nc4ccc(C(=O)N5CCC(C(=O)N6CCNC(C(=O)O)C6)CC5)c(C)c4)nccn23)cc1F (centres unmarked) [Example 264, 4-[1-[4-[[3-(3-fluoro-4-methoxyphenyl)imidazo[1,2-a]pyrazin-8-yl]amino]-2-methylbenzoyl]piperidine-4-carbonyl]piperazine-2-carboxylic acid; formic acid] | 1100 | –
18 | – | Cc1cc(Nc2nccn3c(-c4ccc(OC(F)F)cc4)cnc23)ccc1C(=O)N1CCN(C(=O)[C@H]2CC[C@H](C(=O)O)CC2)CC1 [Example 265, 4-[4-[4-[[3-[4-(difluoromethoxy)phenyl]imi-dazo[1,2-a]pyrazin-8-yl]amino]-2-methylbenzoyl]piperazine-1-carbonyl]cyclohexane-1-carboxylic acid] | 1100 | –
19 | 1100 | COc1ccc(-c2cnc3c(Nc4ccc(C(=O)N5CCC(C(=O)N6CCNC(C(=O)O)C6)CC5)c(C)c4)nccn23)c(F)c1F (centres unmarked) [Example 266, 4-[1-[4-[[3-(2,3-difluoro-4-methoxyphenyl)imidazo[1,2-a]pyrazin-8-yl]amino]-2-methylbenzoyl]piperidine-4-carbonyl]piperazine-2-carboxylic acid] | – | –
20 | – | Cc1cc(Nc2nccn3c(-c4ccc(OC(F)F)cc4)cnc23)ccc1C(=O)N1CCN(C(=O)C2(C)CNC2)CC1 [Example 267, [4-[[3-[4-(difluoromethoxy)phenyl]imi-dazo[1,2-a]pyrazin-8-yl]amino]-2-methylphenyl]-[4-(3-methylazetidine-3-carbonyl)piperazin-1-yl]methanone] | 1300 | –
21 | – | Cc1cc(Nc2nccn3c(-c4ccc(OC(F)F)cc4)cnc23)ccc1C(=O)N1CCC(C(=O)N(C)C[C@H](O)[C@@H](O)[C@@H](O)[C@H](O)CO)CC1 [Example 268, 1-[4-[[3-[4-(difluoromethoxy)phenyl]imi-dazo[1,2-a]pyrazin-8-yl]amino]-2-methylbenzoyl]-N-methyl-N-[(2S,3R,4S,5R)-2,3,4,5,6-pentahydroxyhexyl]piperidine-4-carboxamide] | 1500 | –
22 | – | Cc1cc(Nc2nccn3c(-c4ccc(OC(F)F)cc4)cnc23)ccc1C(=O)N1CCN(C(=O)c2cc(C(=O)O)ncn2)CC1 [Example 269, 6-[4-[4-[[3-[4-(difluoromethoxy)phenyl]imi-dazo[1,2-a]pyrazin-8-yl]amino]-2-methylbenzoyl]piperazine-1-carbonyl]pyrimidine-4-carboxylic acid] | 2000 | –
23 | – | Cc1cc(Nc2nccn3c(-c4ccc(OC(F)F)cc4)cnc23)ccc1C(=O)N1CCC(C(=O)N2C[C@H](O)[C@@H](O)[C@@H](O)[C@H]2CO)CC1 [Example 270, [4-[[3-[4-(difluoromethoxy)phenyl]imi-dazo[1,2-a]pyrazin-8-yl]amino]-2-methylphenyl]-[4-[(2R,3S,4R,5S)-3,4,5-trihydroxy-2-(hydroxymethyl)piperidine-1-carbonyl]piperidin-1-yl]methanone] | 2000 | –
24 | – | Cc1cc(Nc2nccn3c(-c4ccc(OC(F)F)cc4)cnc23)ccc1C(=O)N1CCN(C(=O)[C@@H](N)CCC(=O)O)CC1 [Example 272, (4S)-4-amino-5-[4-[4-[[3-[4-(difluoromethoxy)phenyl]imi-dazo[1,2-a]pyrazin-8-yl]amino]-2-methylbenzoyl]piperazin-1-yl]-5-oxopentanoic acid; hydrochloride] | 2200 | –
25 | 2400 | COc1ccc(-c2cnc3c(Nc4ccc(C(=O)N5CCC(C(=O)N6CCN(C)C(C(=O)O)C6)CC5)c(C)c4)nccn23)c(F)c1F (centres unmarked) [Example 273, 4-[1-[4-[[3-(2,3-difluoro-4-methoxyphenyl)imidazo[1,2-a]pyrazin-8-yl]amino]-2-methylbenzoyl]piperidine-4-carbonyl]-1-methylpiperazine-2-carboxylic acid] | – | –

Row | Compound | IC90 [1] [nM] | IC90 [2] [nM] | other results
26 | Cc1cc(Nc2nccn3c(-c4ccc(OC(F)F)cc4)cnc23)ccc1C(=O)N1CCN(C(=O)CC[C@@H](N)C(=O)O)CC1 [Example 271, (2R)-2-amino-5-[4-[4-[[3-[4-(difluoromethoxy)phenyl]imi-dazo[1,2-a]pyrazin-8-yl]amino]-2-methylbenzoyl]piperazin-1-yl]-5-oxopentanoic acid; formic acid] | 2100 | – | –
